Structures are written as SMILES.

The term IC50 denotes the concentration that gives 50% inhibition.

The target in the first assay is T1, recombinant alpha-glucosidase II (murine full-length glucosidase II, alpha and beta subunits, Glu 2) (Mus musculus, UniProt Q8BHN3).
T1 construct: made in house; host or cells: HEK-293T cells transduced with BacMam viruses (75% alpha, 25% beta); protein harvested from culture supernatant
T1 sequence (O08795 15-521): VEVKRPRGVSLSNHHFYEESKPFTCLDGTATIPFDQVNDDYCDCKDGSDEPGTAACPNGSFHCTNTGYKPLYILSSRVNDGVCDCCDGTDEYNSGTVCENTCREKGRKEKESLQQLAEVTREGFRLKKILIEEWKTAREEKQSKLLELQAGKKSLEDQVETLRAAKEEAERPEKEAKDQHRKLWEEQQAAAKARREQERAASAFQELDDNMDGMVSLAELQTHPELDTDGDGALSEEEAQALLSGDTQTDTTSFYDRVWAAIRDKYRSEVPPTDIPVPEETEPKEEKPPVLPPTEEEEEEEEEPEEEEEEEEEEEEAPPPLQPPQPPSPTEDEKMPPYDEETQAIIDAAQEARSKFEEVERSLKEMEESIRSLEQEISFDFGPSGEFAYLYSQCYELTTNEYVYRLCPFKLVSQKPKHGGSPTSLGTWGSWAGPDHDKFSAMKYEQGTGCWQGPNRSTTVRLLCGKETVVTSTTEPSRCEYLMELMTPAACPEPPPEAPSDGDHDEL
T1 sequence (Q8BHN3 33-944): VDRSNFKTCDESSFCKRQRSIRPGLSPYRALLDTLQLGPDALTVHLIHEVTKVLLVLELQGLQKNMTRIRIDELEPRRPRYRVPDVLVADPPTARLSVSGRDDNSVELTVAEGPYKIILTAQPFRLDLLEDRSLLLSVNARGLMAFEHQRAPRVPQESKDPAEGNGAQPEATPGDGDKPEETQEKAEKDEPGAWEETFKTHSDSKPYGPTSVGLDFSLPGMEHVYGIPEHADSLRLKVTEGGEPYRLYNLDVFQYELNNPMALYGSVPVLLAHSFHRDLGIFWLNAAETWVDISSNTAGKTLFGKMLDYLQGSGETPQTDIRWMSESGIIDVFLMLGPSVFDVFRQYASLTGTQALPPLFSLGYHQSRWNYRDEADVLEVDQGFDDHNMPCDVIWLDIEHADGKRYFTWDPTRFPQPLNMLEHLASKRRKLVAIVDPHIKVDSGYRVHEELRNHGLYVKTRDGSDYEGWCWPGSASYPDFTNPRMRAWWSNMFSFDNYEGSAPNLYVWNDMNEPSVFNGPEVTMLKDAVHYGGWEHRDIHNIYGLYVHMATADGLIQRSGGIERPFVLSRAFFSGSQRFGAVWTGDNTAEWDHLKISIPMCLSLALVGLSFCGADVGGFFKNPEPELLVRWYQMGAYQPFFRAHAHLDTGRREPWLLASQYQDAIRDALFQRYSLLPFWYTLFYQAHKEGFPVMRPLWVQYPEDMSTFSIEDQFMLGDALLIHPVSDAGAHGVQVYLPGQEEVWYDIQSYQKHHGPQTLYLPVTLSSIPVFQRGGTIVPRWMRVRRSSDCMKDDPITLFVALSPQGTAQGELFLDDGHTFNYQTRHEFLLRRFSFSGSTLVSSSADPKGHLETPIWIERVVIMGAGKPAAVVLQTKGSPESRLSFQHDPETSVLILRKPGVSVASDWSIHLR
Put plainly: Alpha-glucosidase II assay (4-methylumbelliferyl-alpha-D-pyranoside substrate, fluorescence).
Settings: not given
The class given is biochemical.
Turning to `CS(=O)(=O)c1cc(NCc2cccc(CN3C[C@H](O)[C@@H](O)[C@H](O)[C@H]3CO)c2)cc(-c2cccnn2)c1` [Compound 1040, (2R,3R,4R,5S)-2-(hydroxymethyl)-1-{[3-({[3-methanesulfonyl-5-(pyridazin-3-yl)phenyl]amino}methyl)phenyl]methyl}piperidine-3,4,5-triol], the half-inhibitory concentration (IC50) turned out to be 4610 nM.

Consider `OC[C@@H]1[C@@H](O)[C@H](O)[C@@H](O)CN1CCc1ccc(CCNc2cc(Cl)cc(-c3ncon3)c2)cc1` [Compound 1113, (2R,3R,4R,5S)-1-{2-[4-(2-{[3-chloro-5-(1,2,4-oxadiazol-3-yl)phenyl]amino}ethyl)phenyl]ethyl}-2-(hydroxymethyl)piperidine-3,4,5-triol], for which the half-maximal inhibitory concentration (IC50) came out at 296 nM.

Staying with this assay, now noted: Glucosidase 2; read-out: Glu2 IC50.
As to `COc1cc(-c2ncco2)ccc1NCCCCCCN1C[C@H](O)[C@@H](O)[C@H](O)[C@H]1CO` [Compound 1207, (2R,3R,4R,5S)-2-(hydroxymethyl)-1-(6-{[2-methoxy-4-(1,3-oxazol-2-yl)phenyl]amino}hexyl)piperidine-3,4,5-triol], the IC50 was found to be 14 nM.

As to `[N-]=[N+]=Nc1ccc(NCCc2nccc(CCN3C[C@H](O)[C@@H](O)[C@H](O)[C@H]3CO)n2)c([N+](=O)[O-])c1` [Compound 1188, (2R,3R,4R,5S)-1-[2-(2-{2-[(4-azido-2-nitrophenyl)amino]ethyl}pyrimidin-4-yl)ethyl]-2-(hydroxymethyl)piperidine-3,4,5-triol], the IC50 came out at 1140 nM.

Turning to `COc1cc(NCCc2ccc(CCN3C[C@H](O)[C@@H](O)[C@H](O)[C@H]3CO)cc2)cc(C2=CCOCC2)c1` [Compound 1154, (2R,3R,4R,5S)-1-{2-[4-(2-{[3-(3,6-dihydro-2H-pyran-4-yl)-5-methoxyphenyl]amino}ethyl)phenyl]ethyl}-2-(hydroxymethyl)piperidine-3,4,5-triol], the IC50 is 2 nM.

As to `COc1cc(C#N)cc(NCCc2ccc(CCN3C[C@H](O)[C@@H](O)[C@H](O)[C@H]3CO)cc2)c1` [Compound 1133, 3-methoxy-5-{[2-(4-{2-[(2R,3R,4R,5S)-3,4,5-trihydroxy-2-(hydroxymethyl)piperidin-1-yl]ethyl}phenyl)ethyl]amino}benzonitrile], the half-inhibitory concentration (IC50) worked out at 5 nM.

As to `CS(=O)(=O)c1cc(NCCCCCCN2C[C@H](O)[C@@H](O)[C@H](O)[C@H]2CO)cc(-c2ncccn2)c1` [Compound 1128, (2R,3R,4R,5S)-2-(hydroxymethyl)-1-(6-{[3-methanesulfonyl-5-(pyrimidin-2-yl)phenyl]amino}hexyl)piperidine-3,4,5-triol], the IC50 amounted to 1 nM.

For the molecule `COc1cc(CN2CCCO2)cc(NCCCCCCN2C[C@H](O)[C@@H](O)[C@H](O)[C@H]2CO)c1` [Compound 1182, (2R,3R,4R,5S)-2-(hydroxymethyl)-1-[6-({3-methoxy-5-[(1,2-oxazolidin-2-yl)methyl]phenyl}amino)hexyl]piperidine-3,4,5-triol], the half-maximal inhibitory concentration (IC50) was 2 nM.

Consider `OC[C@@H]1[C@@H](O)[C@H](O)[C@@H](O)CN1CCc1ccc(CCNc2cc(Cl)cc(-c3ccco3)c2)cc1` [Compound 1159, (2R,3R,4R,5S)-1-{2-[4-(2-{[3-chloro-5-(furan-2-yl)phenyl]amino}ethyl)phenyl]ethyl}-2-(hydroxymethyl)piperidine-3,4,5-triol], for which the IC50 came to 91 nM.

Source of the values: patent US20250197372A1 (priority 2020, published 2025).
